# Test results taken from patent US11505543B2, “4-oxo-3,4-dihydroquinazoline compounds as inhibitors of human immunodeficiency virus replication” (VIIV HEALTHCARE UK (NO.5) LIMITED, priority 2018, dated 2022).
# Experiments:
# [1] = system: recombinant NL4-3 virus (nef section replaced with Renilla luciferase gene) in MT-2 cells; assay: HIV cell culture assay (antiviral activity, luciferase readout); format: cell-based; conditions: Renilla, NL43, MT-2 cells infected for 4-5 days with recombinant NL4-3 Renilla luciferase virus, serial dilutions of compound
# Summary of the method: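 Test compound in serial dilution was present while MT-2 cells were infected for 4–5 days with recombinant NL4-3 virus made in 293T cells. Antiviral activity was quantified as Renilla luciferase activity, read with a live-cell substrate. EC50 came from the median-effect equation.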
# [2] = Compound cytotoxicity, XTT-based colorimetric assay; format: cell-based; conditions: human, uninfected MT2 cells, day 4, XTT
# Summary of the method: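 Run under the antiviral-assay protocol but without virus. Viability was read on day 4 and CC50 values were derived from the readout.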
SMILES,EC50 [1] [nM],CC50 at 4 day [2] [nM]
"CS(=O)(=O)Nc1nn(CC(F)(F)F)c2c(-n3c([C@H](Cc4cc(F)cc(F)c4)NC(=O)Cn4nc(C(F)F)c5c4C(F)(F)[C@@H]4C[C@H]54)nc4cc(-c5ccccc5S(C)(=O)=O)ccc4c3=O)ccc(Cl)c12 [Example 167, N-((S)-1-(3-(4-chloro-3-(methylsulfonamido)-1-(2,2,2-trifluoroethyl)-1H-indazol-7-yl)-7-(2-(methylsulfonyl)phenyl)-4-oxo-3,4-dihydroquinazolin-2-yl)-2-(3,5-difluorophenyl)ethyl)-2-((3bS,4aR)-3-(difluoromethyl)-5,5-difluoro-3b,4,4a,5-tetrahydro-1H-cyclopropa[3,4]cyclopenta[1,2-c]pyrazol-1-yl)acetamide]",0.08,> 500
"Cn1nc(NS(C)(=O)=O)c2c(Cl)ccc(-n3c([C@H](Cc4cc(F)cc(F)c4)NC(=O)Cn4nc(C(F)F)c5c4C(F)(F)[C@@H]4C[C@H]54)nc4cc(-c5ccc(F)c(F)c5F)ccc4c3=O)c21 [Example 168, N-((S)-1-(3-(4-chloro-1-methyl-3-(methylsulfonamido)-1H-indazol-7-yl)-4-oxo-7-(2,3,4-trifluorophenyl)-3,4-dihydroquinazolin-2-yl)-2-(3,5-difluorophenyl)ethyl)-2-((3bS,4aR)-3-(difluoromethyl)-5,5-difluoro-3b,4,4a,5-tetrahydro-1H-cyclopropa[3,4]cyclopenta[1,2-c]pyrazol-1-yl)acetamide]",0.7,> 500
"Cn1nc(NS(C)(=O)=O)c2c(Cl)ccc(-n3c([C@H](Cc4cc(F)cc(F)c4)NC(=O)Cn4nc(C(F)F)c5c4C(F)(F)[C@@H]4C[C@H]54)nc4cc(-c5ccc(F)c(C#N)c5F)ccc4c3=O)c21 [Example 170, N-((S)-1-(3-(4-chloro-1-methyl-3-(methylsulfonamido)-1H-indazol-7-yl)-7-(3-cyano-2,4-difluorophenyl)-4-oxo-3,4-dihydroquinazolin-2-yl)-2-(3,5-difluorophenyl)ethyl)-2-((3bS,4aR)-3-(difluoromethyl)-5,5-difluoro-3b,4,4a,5-tetrahydro-1H-cyclopropa[3,4]cyclopenta[1,2-c]pyrazol-1-yl)acetamide]",0.58,> 500
"Cn1nc(NS(C)(=O)=O)c2c(Cl)ccc(-n3c([C@H](Cc4cc(F)cc(F)c4)NC(=O)Cn4nc(C(F)F)c5c4C(F)(F)[C@@H]4C[C@H]54)nc4cc(-c5c(F)cc(F)cc5F)ccc4c3=O)c21 [Example 172, N-((S)-1-(3-(4-chloro-1-methyl-3-(methylsulfonamido)-1H-indazol-7-yl)-4-oxo-7-(2,4,6-trifluorophenyl)-3,4-dihydroquinazolin-2-yl)-2-(3,5-difluorophenyl)ethyl)-2-((3bS,4aR)-3-(difluoromethyl)-5,5-difluoro-3b,4,4a,5-tetrahydro-1H-cyclopropa[3,4]cyclopenta[1,2-c]pyrazol-1-yl)acetamide]",0.25,> 500
"Cn1nc(NS(C)(=O)=O)c2c(Cl)ccc(-n3c([C@H](Cc4cc(F)cc(F)c4)NC(=O)Cn4nc(C(F)F)c5c4C(F)(F)[C@@H]4C[C@H]54)nc4cc(-c5ccc(F)c(F)c5)ccc4c3=O)c21 [Example 173, N-((S)-1-(3-(4-chloro-1-methyl-3-(methylsulfonamido)-1H-indazol-7-yl)-7-(3,4-difluorophenyl)-4-oxo-3,4-dihydroquinazolin-2-yl)-2-(3,5-difluorophenyl)ethyl)-2-((3bS,4aR)-3-(difluoromethyl)-5,5-difluoro-3b,4,4a,5-tetrahydro-1H-cyclopropa[3,4]cyclopenta[1,2-c]pyrazol-1-yl)acetamide]",0.68,> 500
"Cc1ncc(-c2ccc3c(=O)n(-c4ccc(Cl)c5c(NS(C)(=O)=O)nn(CC(F)F)c45)c([C@H](Cc4cc(F)cc(F)c4)NC(=O)Cn4nc(C(F)F)c5c4C(F)(F)[C@@H]4C[C@H]54)nc3c2)cn1 [Example 174, N-((S)-1-(3-(4-chloro-1-(2,2-difluoroethyl)-3-(methylsulfonamido)-1H-indazol-7-yl)-7-(2-methylpyrimidin-5-yl)-4-oxo-3,4-dihydroquinazolin-2-yl)-2-(3,5-difluorophenyl)ethyl)-2-((3bS,4aR)-3-(difluoromethyl)-5,5-difluoro-3b,4,4a,5-tetrahydro-1H-cyclopropa[3,4]cyclopenta[1,2-c]pyrazol-1-yl)acetamide]",0.033,> 500
"Cc1cccc(-c2ccc3c(=O)n(-c4ccc(Cl)c5c(NS(C)(=O)=O)nn(CC(F)F)c45)c([C@H](Cc4cc(F)cc(F)c4)NC(=O)Cn4nc(C(F)F)c5c4C(F)(F)[C@@H]4C[C@H]54)nc3c2)n1 [Example 175, N-((S)-1-(3-(4-chloro-1-(2,2-difluoroethyl)-3-(methylsulfonamido)-1H-indazol-7-yl)-7-(6-methylpyridin-2-yl)-4-oxo-3,4-dihydroquinazolin-2-yl)-2-(3,5-difluorophenyl)ethyl)-2-((3bS,4aR)-3-(difluoromethyl)-5,5-difluoro-3b,4,4a,5-tetrahydro-1H-cyclopropa[3,4]cyclopenta[1,2-c]pyrazol-1-yl)acetamide]",0.08,> 500
"CS(=O)(=O)Nc1nn(CC(F)F)c2c(-n3c([C@H](Cc4cc(F)cc(F)c4)NC(=O)Cn4nc(C(F)F)c5c4C(F)(F)[C@@H]4C[C@H]54)nc4cc(-c5ccccc5S(C)(=O)=O)ccc4c3=O)ccc(Cl)c12 [Example 176, N-((S)-1-(3-(4-chloro-1-(2,2-difluoroethyl)-3-(methylsulfonamido)-1H-indazol-7-yl)-7-(2-(methylsulfonyl)phenyl)-4-oxo-3,4-dihydroquinazolin-2-yl)-2-(3,5-difluorophenyl)ethyl)-2-((3bS,4aR)-3-(difluoromethyl)-5,5-difluoro-3b,4,4a,5-tetrahydro-1H-cyclopropa[3,4]cyclopenta[1,2-c]pyrazol-1-yl)acetamide]",0.066,> 500
"CCS(=O)(=O)c1ccccc1-c1ccc2c(=O)n(-c3ccc(Cl)c4c(NS(C)(=O)=O)nn(CC(F)F)c34)c([C@H](Cc3cc(F)cc(F)c3)NC(=O)Cn3nc(C(F)F)c4c3C(F)(F)[C@@H]3C[C@H]43)nc2c1 [Example 177, N-((S)-1-(3-(4-chloro-1-(2,2-difluoroethyl)-3-(methylsulfonamido)-1H-indazol-7-yl)-7-(2-(ethylsulfonyl)phenyl)-4-oxo-3,4-dihydroquinazolin-2-yl)-2-(3,5-difluorophenyl)ethyl)-2-((3bS,4aR)-3-(difluoromethyl)-5,5-difluoro-3b,4,4a,5-tetrahydro-1H-cyclopropa[3,4]cyclopenta[1,2-c]pyrazol-1-yl)acetamide]",0.053,> 500
"CC(C)S(=O)(=O)c1ccccc1-c1ccc2c(=O)n(-c3ccc(Cl)c4c(NS(C)(=O)=O)nn(CC(F)F)c34)c([C@H](Cc3cc(F)cc(F)c3)NC(=O)Cn3nc(C(F)F)c4c3C(F)(F)[C@@H]3C[C@H]43)nc2c1 [Example 178, N-((S)-1-(3-(4-chloro-1-(2,2-difluoroethyl)-3-(methylsulfonamido)-1H-indazol-7-yl)-7-(2-(isopropylsulfonyl)phenyl)-4-oxo-3,4-dihydroquinazolin-2-yl)-2-(3,5-difluorophenyl)ethyl)-2-((3bS,4aR)-3-(difluoromethyl)-5,5-difluoro-3b,4,4a,5-tetrahydro-1H-cyclopropa[3,4]cyclopenta[1,2-c]pyrazol-1-yl)acetamide]",0.065,> 500
